The AC50 is the concentration giving half of the maximal activity seen.

The values below come from PubChem BioAssay AID977628 (Broad Institute, 2014).

Records with an inconclusive call do not appear. Active and inactive are the calls of the source.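 The calls were made as follows: active = compound lowering the normal-ribosome reporter at least twice as much as the humanized-ribosome reporter, growth loss under a set limit; inconclusive = no clear call, values can overlap the other calls; inactive = the rest.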 Where only a bound is given, the exact number is not on record here.

Common to all, as to experiment: E. coli growth inhibition, wild-type GFP versus h24 humanized RFP strain, dose response, h24 mutant RFP vs wild-type GFP, cherry-pick (AID 977628);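 also: wild-type GFP and h24 humanized RFP strains co-cultured 1 to 1 per well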
Test [1] concerns E. coli WT GFP strain growth, fluorescence, 24 h.
The test system of test [2] is E. coli mixed WT/h24 culture total growth, OD600, 24 h.
The test system of test [3] is E. coli h24 humanized mutant RFP strain growth, fluorescence, 24 h.

With `Cc1nnc2sc(SCC(=O)Nc3ccc(Br)cc3)nn2c1=O`, the AC50 in test [1] was > 100 µM (inactive); in test [2] it was above 100 µM; in test [3], above 100 µM.

Turning to `O=C(O)CCSc1nc2ccccc2n1-c1ccccc1`, the AC50 was > 100 µM (inactive) in test [1], 36.4 µM in test [2] and 29.2 µM in test [3].
